Assay results taken from the NIST ThermoML archive (doi:10.1016/j.jct.2018.11.004).
Values joined by “and” are separate entries in the source; they are usually repeats but may differ in a detail not shown here. Equal values may be shown once.

Legend:
[1] = for Triple point temperature: DSC
[2] = Molar enthalpy of transition or fusion; details: DSC
[3] = molar heat capacity at constant pressure; details: 100 kPa, Extra sensitive DSC

CC(C)[C@@H]1CC[C@@H](C)C[C@H]1O (racemic) [DL-menthol]
Details | molar heat capacity at constant pressure [J/K/mol] | vapor or sublimation pressure
[1], 273.65 K, Crystal 1 | – | 0.000259 kPa
[1], 273.66 K, Crystal 1 | – | 0.000261 kPa
[1], 277.57 K, Crystal 1 | – | 0.000442 kPa
[1], 277.59 K, Crystal 1 | – | 0.000442 kPa
[1], 277.6 K, Crystal 1 | – | 0.00044 kPa
[1], 278.16 K, Crystal 1 | – | 0.00048 kPa and 0.000479 kPa and 0.000477 kPa
[1], 278.28 K, Metastable crystal | – | 0.000597 kPa and 0.000607 kPa
[1], 278.29 K, Metastable crystal | – | 0.00061 kPa
[1], 282.56 K, Crystal 1 | – | 0.000853 kPa
[1], 282.57 K, Crystal 1 | – | 0.000852 kPa
[1], 282.59 K, Crystal 1 | – | 0.000854 kPa
[1], 283.12 K, Metastable crystal | – | 0.00109 kPa
[1], 283.13 K, Metastable crystal | – | 0.0011 kPa and 0.001093 kPa
[1], 283.15 K, Crystal 1 | – | 0.000922 kPa
[1], 283.16 K, Crystal 1 | – | 0.000921 kPa and 0.000926 kPa
[1], 287.34 K, Crystal 1 | – | 0.001562 kPa
[1], 287.43 K, Crystal 1 | – | 0.001579 kPa
[1], 287.59 K, Crystal 1 | – | 0.001607 kPa
[1], 288.14 K, Metastable crystal | – | 0.002021 kPa and 0.00201 kPa
[1], 288.15 K, Metastable crystal | – | 0.00201 kPa
[1], 288.16 K, Crystal 1 | – | 0.001734 kPa and 0.001736 kPa
[1], 292.79 K, Crystal 1 | – | 0.003041 kPa
[1], 292.84 K, Crystal 1 | – | 0.003054 kPa
[1], 292.9 K, Crystal 1 | – | 0.003078 kPa
[1], 293.14 K, Crystal 1 | – | 0.003173 kPa and 0.00318 kPa
[1], 293.14 K, Metastable crystal | – | 0.003615 kPa and 0.003596 kPa and 0.003627 kPa
[1], 293.14 K, Metastable liquid | – | 0.003971 kPa and 0.003966 kPa and 0.003969 kPa
[1], 293.15 K, Crystal 1 | – | 0.003183 kPa
[1], 293.54 K, Metastable liquid | – | 0.00414 kPa and 0.004147 kPa
[1], 293.55 K, Metastable liquid | – | 0.004144 kPa
[1], 298.13 K, Metastable liquid | – | 0.006551 kPa
[1], 298.14 K, Metastable crystal | – | 0.00634 kPa and 0.006361 kPa and 0.006351 kPa
[1], 298.14 K, Metastable liquid | – | 0.006556 kPa and 0.00655 kPa
[1], 298.16 K, Crystal 1 | – | 0.005733 kPa [middle of 4 runs]
[1], 298.17 K, Crystal 1 | – | 0.005739 kPa
[1], 298.18 K, Crystal 1 | – | 0.005738 kPa
[1], 298.45 K, Metastable liquid | – | 0.006763 kPa
[1], 298.46 K, Metastable liquid | – | 0.00678 kPa
[1], 298.47 K, Metastable liquid | – | 0.006777 kPa
[1], 303.13 K, Metastable liquid | – | 0.01059 kPa
[1], 303.14 K, Crystal 1 | – | 0.01009 kPa and 0.0101 kPa
[1], 303.14 K, Metastable liquid | – | 0.0106 kPa
[1], 303.15 K, Crystal 1 | – | 0.0101 kPa
[1], 303.17 K, Crystal 1 | – | 0.01013 kPa
[1], 303.19 K, Crystal 1 | – | 0.01017 kPa
[1], 303.2 K, Crystal 1 | – | 0.01019 kPa
[1], 303.42 K, Metastable liquid | – | 0.01089 kPa and 0.01091 kPa
[1], 303.43 K, Metastable liquid | – | 0.01091 kPa
[1], 308.14 K, Liquid | – | 0.01683 kPa and 0.01682 kPa and 0.01681 kPa
[1], 308.42 K, Liquid | – | 0.01728 kPa
[1], 308.43 K, Liquid | – | 0.01728 kPa and 0.01729 kPa
[1], 313.42 K, Liquid | – | 0.0268 kPa
[1], 313.43 K, Liquid | – | 0.02682 kPa
[1], 313.44 K, Liquid | – | 0.02686 kPa
[1], 318.39 K, Liquid | – | 0.04089 kPa
[1], 318.4 K, Liquid | – | 0.04092 kPa
[1], 318.42 K, Liquid | – | 0.041 kPa
[1], 323.41 K, Liquid | – | 0.06149 kPa and 0.06146 kPa
[1], 328.43 K, Liquid | – | 0.09086 kPa
[1], 333.43 K, Liquid | – | 0.1322 kPa
[1], 333.44 K, Liquid | – | 0.1323 kPa
[1], 338.35 K, Liquid | – | 0.188 kPa
[1], 338.36 K, Liquid | – | 0.188 kPa
[1], 343.2 K, Liquid | – | 0.2626 kPa
[1], 343.21 K, Liquid | – | 0.2628 kPa
[1], 348.1 K, Liquid | – | 0.3638 kPa
[1], 348.11 K, Liquid | – | 0.3638 kPa
[1], 353.03 K, Liquid | – | 0.4979 kPa
[1], 362.97 K, Liquid | – | 0.9031 kPa
[3], 265 K, Crystal 1 | 217.6 | –
[3], 270 K, Crystal 1 | 221.3 | –
[3], 270 K, Metastable crystal | 217.5 | –
[3], 275 K, Crystal 1 | 225.3 | –
[3], 275 K, Metastable crystal | 219.5 | –
[3], 280 K, Crystal 1 | 229.5 | –
[3], 280 K, Metastable crystal | 223.1 | –
[3], 285 K, Crystal 1 | 234.2 | –
[3], 285 K, Metastable crystal | 229 | –
[3], 315.4 K, Liquid | 377.3 | –
[3], 320 K, Liquid | 384.2 | –
[3], 325 K, Liquid | 392 | –
[3], 330 K, Liquid | 399.8 | –
[3], 335 K, Liquid | 406.9 | –
[3], 340 K, Liquid | 412.7 | –
[3], 345 K, Liquid | 418.1 | –
[3], 350 K, Liquid | 423.7 | –
[3], 355 K, Liquid | 429 | –

Details | Molar enthalpy of transition or fusion, [2] [kcal/mol] | Triple point temperature, [1] [K]
Crystal 1 | 3.27 | 305.7
Metastable crystal | 2.37 | 300.7
